Data reported in ChEMBL document CHEMBL1157707, “Lead optimization of N-3-substituted 7-morpholinotriazolopyrimidines as dual phosphoinositide 3-kinase/mammalian target of rapamycin inhibitors: discovery of PKI-402” (J Med Chem, 2010).
Values after ≈ are worked out from the molar mass of the structure shown. Blank lines part the entries; values can stand above or below the compound they belong to. Active and inactive are the calls of the source. No cut-off for these calls is given here.

Experiments:
[1] = system: PC-3; assay: cells; settings: Homo sapiens, PC-3, 72 h
[2] = target: Phosphatidylinositol 4,5-bisphosphate 3-kinase catalytic subunit alpha isoform (Homo sapiens, UniProt P42336)
Sequence of Phosphatidylinositol 4,5-bisphosphate 3-kinase catalytic subunit alpha isoform (P42336 whole entry, canonical isoform): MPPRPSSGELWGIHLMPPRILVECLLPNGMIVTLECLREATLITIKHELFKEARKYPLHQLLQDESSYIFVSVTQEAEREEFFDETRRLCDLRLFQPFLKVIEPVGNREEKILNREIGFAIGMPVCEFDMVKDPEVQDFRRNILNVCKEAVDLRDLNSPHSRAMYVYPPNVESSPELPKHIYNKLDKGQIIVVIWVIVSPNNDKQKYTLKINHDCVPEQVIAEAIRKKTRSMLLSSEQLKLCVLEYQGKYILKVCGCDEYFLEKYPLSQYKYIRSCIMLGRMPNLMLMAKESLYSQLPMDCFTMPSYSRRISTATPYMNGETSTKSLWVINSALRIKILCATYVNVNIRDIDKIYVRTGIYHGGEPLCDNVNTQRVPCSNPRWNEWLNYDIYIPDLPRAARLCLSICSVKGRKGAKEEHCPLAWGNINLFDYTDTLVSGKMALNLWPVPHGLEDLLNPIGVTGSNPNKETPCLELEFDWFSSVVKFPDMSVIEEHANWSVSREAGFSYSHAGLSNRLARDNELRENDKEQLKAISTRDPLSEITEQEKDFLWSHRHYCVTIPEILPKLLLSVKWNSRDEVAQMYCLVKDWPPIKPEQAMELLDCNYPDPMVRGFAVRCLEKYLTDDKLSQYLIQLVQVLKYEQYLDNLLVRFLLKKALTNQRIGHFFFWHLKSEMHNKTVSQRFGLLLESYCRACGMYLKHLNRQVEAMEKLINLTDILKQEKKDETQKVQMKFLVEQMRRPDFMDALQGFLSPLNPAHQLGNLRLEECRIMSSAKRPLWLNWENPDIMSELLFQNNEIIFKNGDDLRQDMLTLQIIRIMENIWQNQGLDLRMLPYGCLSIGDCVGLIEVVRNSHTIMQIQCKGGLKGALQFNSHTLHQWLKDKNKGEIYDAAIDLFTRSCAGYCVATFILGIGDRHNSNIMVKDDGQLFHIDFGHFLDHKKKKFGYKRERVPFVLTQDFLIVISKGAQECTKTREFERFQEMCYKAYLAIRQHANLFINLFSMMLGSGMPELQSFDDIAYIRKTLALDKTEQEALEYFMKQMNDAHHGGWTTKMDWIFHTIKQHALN

[3] = Inhibition of Akt T308 phosphorylation in human MDA-MB-361 cells by Western blotting; assay type: cell-based
[4] = target: Serine/threonine-protein kinase mTOR (Homo sapiens, UniProt P42345); assay: Inhibition of mTOR by DELFIA
[5] = system: MDA-MB-361; assay: cells; settings: Homo sapiens, MDA-MB-361, 72 h
[6] = target: Phosphatidylinositol 4,5-bisphosphate 3-kinase catalytic subunit gamma isoform (Homo sapiens, UniProt P48736); assay: Inhibition of human PI3Kgamma by fluorescence polarization format assay
Sequence of Phosphatidylinositol 4,5-bisphosphate 3-kinase catalytic subunit gamma isoform (P48736 whole entry, canonical isoform): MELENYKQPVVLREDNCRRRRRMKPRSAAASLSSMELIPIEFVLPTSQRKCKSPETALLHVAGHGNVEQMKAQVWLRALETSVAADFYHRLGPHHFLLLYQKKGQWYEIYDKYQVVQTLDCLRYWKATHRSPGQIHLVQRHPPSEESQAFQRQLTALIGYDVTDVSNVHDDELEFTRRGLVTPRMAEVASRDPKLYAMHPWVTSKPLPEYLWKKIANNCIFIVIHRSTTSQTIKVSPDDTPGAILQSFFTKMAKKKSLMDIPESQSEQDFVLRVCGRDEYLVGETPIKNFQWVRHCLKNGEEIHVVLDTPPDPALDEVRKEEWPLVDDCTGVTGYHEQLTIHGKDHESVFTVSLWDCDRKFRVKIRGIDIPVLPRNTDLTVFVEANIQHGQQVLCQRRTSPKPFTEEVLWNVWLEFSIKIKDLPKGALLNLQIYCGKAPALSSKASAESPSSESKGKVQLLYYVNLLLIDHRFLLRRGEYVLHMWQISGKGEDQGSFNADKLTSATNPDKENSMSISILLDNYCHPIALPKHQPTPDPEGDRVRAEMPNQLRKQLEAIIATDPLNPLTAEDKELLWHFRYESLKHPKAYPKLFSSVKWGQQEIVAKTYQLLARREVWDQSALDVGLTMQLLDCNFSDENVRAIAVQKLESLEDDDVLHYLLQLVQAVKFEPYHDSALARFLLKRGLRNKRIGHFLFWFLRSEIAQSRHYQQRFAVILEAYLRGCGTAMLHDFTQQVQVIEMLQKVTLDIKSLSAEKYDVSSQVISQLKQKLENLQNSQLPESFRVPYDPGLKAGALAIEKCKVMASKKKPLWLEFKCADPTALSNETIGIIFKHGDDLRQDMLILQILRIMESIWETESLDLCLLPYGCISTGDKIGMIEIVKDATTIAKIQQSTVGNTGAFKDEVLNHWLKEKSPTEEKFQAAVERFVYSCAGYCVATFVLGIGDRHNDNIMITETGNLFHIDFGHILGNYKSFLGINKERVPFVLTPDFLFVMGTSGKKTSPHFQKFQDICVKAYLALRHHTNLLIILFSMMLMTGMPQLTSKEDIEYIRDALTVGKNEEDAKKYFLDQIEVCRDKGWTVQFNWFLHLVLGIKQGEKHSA

[7] = Solubility at pH 7.4; assay type: physicochemical; settings: buffer
[8] = in vitro; settings: rat
[9] = cells; settings: Homo sapiens, MDA-MB-361, 4 h
[10] = Metabolic stability in mouse liver microsomes assessed as half life; assay type: ADME, Microsome
[11] = Metabolic stability in human liver microsomes assessed as half life; assay type: ADME, Microsome
[12] = system: Mus musculus; assay: Plasma concentration in human MDA-MB-361 cells implanted mouse at 50 mg/kg, iv; assay type: ADME, organism-based; parameters: dose 50 mg/kg, route intravenous; settings: in vivo
[13] = system: Mus musculus; assay: Antitumor activity against human MDA-MB-361 cells implanted in mouse assessed as suppression of S6 phosphorylation at 50 mg/kg, iv; assay type: functional, organism-based; parameters: dose 50 mg/kg
[14] = Drug level in human MDA-MB-361 cells implanted mouse tumor at 50 mg/kg, iv; assay type: ADME, organism-based, Neoplasm; parameters: dose 50 mg/kg, route intravenous; settings: in vivo
[15] = Solubility at pH 3; assay type: physicochemical; settings: buffer
[16] = system: Mus musculus; assay: Antitumor activity against human MDA-MB-361 cells implanted in mouse assessed as suppression of P70S6K phosphorylation at 50 mg/kg, iv; assay type: functional, organism-based; parameters: dose 50 mg/kg
[17] = system: Mus musculus; assay: Antitumor activity against human MDA-MB-361 cells implanted in mouse assessed as suppression of Akt S473 phosphorylation at 50 mg/kg, iv; assay type: functional, organism-based; parameters: dose 50 mg/kg
[18] = system: Mus musculus; assay: Antitumor activity against human MDA-MB-361 cells implanted in mouse assessed as suppression of Akt T308 phosphorylation at 50 mg/kg, iv; assay type: functional, organism-based; parameters: dose 50 mg/kg
[19] = Plasma concentration in human MDA-MB-361 cells implanted mouse at 50 mg/kg, iv after 8 hrs; assay type: ADME, organism-based; parameters: dose 50 mg/kg, route intravenous
[20] = system: Mus musculus; assay: Antitumor activity against human MDA-MB-361 cells implanted in mouse assessed as […] of cleavage of PARP at 100 mg/kg, iv after 8 hrs; assay type: functional, organism-based; parameters: dose 100 mg/kg
[21] = target: Phosphatidylinositol 4,5-bisphosphate 3-kinase catalytic subunit beta isoform (Homo sapiens, UniProt P42338); assay: Inhibition of PI3Kbeta
Sequence of Phosphatidylinositol 4,5-bisphosphate 3-kinase catalytic subunit beta isoform (P42338 whole entry, canonical isoform): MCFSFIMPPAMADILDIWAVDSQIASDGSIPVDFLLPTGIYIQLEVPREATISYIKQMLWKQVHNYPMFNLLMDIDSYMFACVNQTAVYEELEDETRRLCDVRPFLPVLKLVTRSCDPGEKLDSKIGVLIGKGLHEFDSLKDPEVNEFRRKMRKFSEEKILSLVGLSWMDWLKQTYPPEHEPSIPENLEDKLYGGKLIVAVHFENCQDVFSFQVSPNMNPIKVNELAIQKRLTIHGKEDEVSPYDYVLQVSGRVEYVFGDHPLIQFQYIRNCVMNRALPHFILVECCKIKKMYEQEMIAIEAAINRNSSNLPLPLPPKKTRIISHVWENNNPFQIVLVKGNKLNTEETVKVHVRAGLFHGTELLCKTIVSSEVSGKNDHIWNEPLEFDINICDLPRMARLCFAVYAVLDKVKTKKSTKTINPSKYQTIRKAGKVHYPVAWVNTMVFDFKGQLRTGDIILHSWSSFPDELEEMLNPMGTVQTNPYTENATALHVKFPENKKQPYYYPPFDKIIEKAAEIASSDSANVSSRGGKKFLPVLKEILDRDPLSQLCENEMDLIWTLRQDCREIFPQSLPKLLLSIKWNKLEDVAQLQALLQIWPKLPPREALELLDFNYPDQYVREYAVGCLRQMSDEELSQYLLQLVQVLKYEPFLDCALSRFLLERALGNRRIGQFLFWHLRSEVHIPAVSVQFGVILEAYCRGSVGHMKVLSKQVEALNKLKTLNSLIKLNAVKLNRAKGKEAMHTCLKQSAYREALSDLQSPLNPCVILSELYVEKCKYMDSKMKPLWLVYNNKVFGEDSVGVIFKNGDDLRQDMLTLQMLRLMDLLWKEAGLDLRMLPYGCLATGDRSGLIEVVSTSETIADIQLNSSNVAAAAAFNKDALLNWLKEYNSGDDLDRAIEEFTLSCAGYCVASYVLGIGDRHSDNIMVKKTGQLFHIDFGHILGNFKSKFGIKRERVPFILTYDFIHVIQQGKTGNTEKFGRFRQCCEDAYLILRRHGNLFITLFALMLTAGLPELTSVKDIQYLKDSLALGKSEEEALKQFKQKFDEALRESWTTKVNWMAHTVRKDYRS

[22] = system: Mus musculus; assay: Antitumor activity against human MDA-MB-361 cells implanted in mouse assessed as suppression of Akt S473 phosphorylation at 100 mg/kg, iv after 8 hrs; assay type: functional, organism-based; parameters: dose 100 mg/kg
[23] = system: Mus musculus; assay: Antitumor activity against human MDA-MB-361 cells implanted in mouse assessed as suppression of P70S6K phosphorylation at 50 mg/kg, iv after 8 hrs; assay type: functional, organism-based; parameters: dose 50 mg/kg
[24] = species on record: Mus musculus; assay: Toxicity in mouse assessed as weight loss; assay type: organism-based; settings: in vivo
[25] = system: Mus musculus; assay: Antitumor activity against human MDA-MB-361 cells implanted in mouse assessed as suppression of Akt T308 phosphorylation at 100 mg/kg, iv after 8 hrs; assay type: functional, organism-based; parameters: dose 100 mg/kg
[26] = system: Mus musculus; assay: Antitumor activity against human MDA-MB-361 cells implanted in mouse assessed as suppression of S6 phosphorylation at 50 mg/kg, iv after 8 hrs; assay type: functional, organism-based; parameters: dose 50 mg/kg
[27] = Drug level in human MDA-MB-361 cells implanted mouse tumor at 50 mg/kg, iv after 8 hrs; assay type: ADME, organism-based, Neoplasm; parameters: dose 50 mg/kg, route intravenous; settings: read-out: Drug uptake
[28] = system: MDA-MB-361; assay: Antitumor activity against human MDA-MB-361 cells implanted in mouse assessed as inhibition of regrowth at until day 16 and 20 at 25 mg/kg, iv once daily for 5 days; assay type: functional, organism-based; parameters: dose 25 mg/kg
[29] = system: Mus musculus; assay: Antitumor activity against human MDA-MB-361 cells implanted in mouse assessed as […] of cleavage of PARP at 50 mg/kg, iv after 8 hrs; assay type: functional, organism-based; parameters: dose 50 mg/kg
[30] = system: Mus musculus; assay: Antitumor activity against human MDA-MB-361 cells implanted in mouse assessed as suppression of Akt S473 phosphorylation at 50 mg/kg, iv after 8 hrs; assay type: functional, organism-based; parameters: dose 50 mg/kg
[31] = system: MDA-MB-361; assay: Antitumor activity against human MDA-MB-361 cells implanted in mouse assessed as inhibition of regrowth at until day 70 at 100 mg/kg, iv once daily for 5 days; assay type: functional, organism-based; parameters: dose 100 mg/kg
[32] = system: Mus musculus; assay: Antitumor activity against human MDA-MB-361 cells implanted in mouse assessed as suppression of S6 phosphorylation at 100 mg/kg, iv after 8 hrs; assay type: functional, organism-based; parameters: dose 100 mg/kg
[33] = system: MDA-MB-361; assay: Antitumor activity against human MDA-MB-361 cells implanted in mouse assessed as inhibition of regrowth at until day 16 and 20 at 50 mg/kg, iv once daily for 5 days; assay type: functional, organism-based; parameters: dose 50 mg/kg
[34] = system: Mus musculus; assay: Antitumor activity against human MDA-MB-361 cells implanted in mouse assessed as suppression of Akt T308 phosphorylation at 50 mg/kg, iv after 8 hrs; assay type: functional, organism-based; parameters: dose 50 mg/kg
[35] = system: Mus musculus; assay: Antitumor activity against human MDA-MB-361 cells implanted in mouse assessed as suppression of P70S6K phosphorylation at 100 mg/kg, iv after 8 hrs; assay type: functional, organism-based; parameters: dose 100 mg/kg

IC50 [1]: 55 nM
IC50 [2]: 3.5 nM
IC50 [3]: 8 nM
IC50 [4]: 0.32 nM
IC50 [5]: < 30 nM
IC50 [6]: 24.8 nM
SMILES: CC(C)n1nnc2c(N3CCOCC3)nc(-c3ccc(NC(=O)Nc4ccc(CO)cc4)cc3)nc21

SMILES: CCn1nnc2c(N3CCOCC3)nc(-c3ccc(NC(=O)Nc4cccnc4)cc3)nc21
IC50 [4]: 0.89 nM

IC50 [1]: 252 nM
solubility [7]: 3 µg/mL (≈ 6.53 µM)
half-life ([8]; liver microsomes): 11 min
IC50 [4]: 21 nM
IC50 [5]: 196 nM
SMILES: CCn1nnc2c(N3CCOCC3)nc(-c3ccc(NC(=O)Nc4ccnc(C)c4)cc3)nc21

IC50 [1]: 33 nM
IC50 [2]: 3 nM
solubility [7]: 1 µg/mL (≈ 1.94 µM)
IC50 [9]: 27 nM
half-life [10]: 29 min
half-life ([8]; microsomes): 16 min
IC50 [4]: 0.56 nM
IC50 [5]: 29 nM
half-life [11]: > 30 min
IC50 [6]: 17.2 nM
SMILES: CCNC(=O)c1ccc(NC(=O)Nc2ccc(-c3nc(N4CCOCC4)c4nnn(CC)c4n3)cc2)cc1

IC50 [1]: 366 nM
solubility [7]: 2 µg/mL (≈ 4.58 µM)
half-life ([8]; liver microsomes): 9 min
IC50 [4]: 3.7 nM
IC50 [5]: 184 nM
SMILES: Cn1nnc2c(N3CCOCC3)nc(-c3ccc(NC(=O)Nc4cccs4)cc3)nc21

IC50 [1]: 393 nM
IC50 [4]: 250 nM
SMILES: OCc1cccc(-c2nc(N3CCOCC3)c3nnn(C4CCN(Cc5ccccc5)CC4)c3n2)c1

Cp [12]: 1229 ng/mL
IC50 [1]: 52 nM
solubility [7]: > 100 µg/mL
IC50 [9]: 16 nM
half-life [10]: 28 min
Drug uptake [14]: 2130 ng/mL
solubility [15]: > 100 µg/mL
half-life ([8]; microsomes): 29 min
IC50 [4]: 0.5 nM
IC50 [5]: 13 nM
half-life [11]: > 30 min
IC50 [6]: 12 nM
SMILES: CCn1nnc2c(N3CCOCC3)nc(-c3ccc(NC(=O)Nc4ccc(C(=O)NCCN(C)C)cc4)cc3)nc21
Activity [13]: Active
Activity [16]: Active
Activity [17]: Active
Activity [18]: Active

IC50 [1]: 70 nM
half-life ([8]; liver microsomes): 21 min
IC50 [4]: 0.84 nM
IC50 [5]: 31 nM
SMILES: O=C(Nc1ccncc1)Nc1ccc(-c2nc(N3CCOCC3)c3nnn(C4CC4)c3n2)cc1

IC50 [1]: 110 nM
solubility [7]: 1 µg/mL (≈ 1.84 µM)
half-life ([8]; liver microsomes): 25 min
IC50 [4]: 0.35 nM
IC50 [5]: 47 nM
SMILES: CC(C)n1nnc2c(N3CCOCC3)nc(-c3ccc(NC(=O)Nc4ccc(N5CCOCC5)cc4)cc3)nc21

IC50 [1]: 90 nM
IC50 [2]: 10.5 nM
solubility [7]: 1 µg/mL (≈ 2.19 µM)
half-life ([8]; liver microsomes): 24 min
IC50 [4]: 0.57 nM
IC50 [5]: 67 nM
IC50 [6]: 48.5 nM
SMILES: O=C(Nc1ccc(-c2nc(N3CCOCC3)c3nnn(C4CC4)c3n2)cc1)Nc1cccnc1

IC50 [1]: 133 nM
solubility [7]: 1 µg/mL (≈ 2.22 µM)
half-life ([8]; liver microsomes): 10 min
IC50 [4]: 3 nM
IC50 [5]: 81 nM
SMILES: CCn1nnc2c(N3CCOCC3)nc(-c3ccc(NC(=O)Nc4cccs4)cc3)nc21

concentration at 8 h [19]: 525 ng/mL
IC50 [21]: 7 nM
IC50 [9]: 5 nM
half-life [10]: > 30 min
concentration at 8 h [27]: 2220 ng/mL
solubility [15]: 100 µg/mL (≈ 175 µM)
half-life ([8]; liver microsomes): 15 min
IC50 [4]: 1.7 nM
half-life [11]: > 30 min
SMILES: CCn1nnc2c(N3CCOCC3)nc(-c3ccc(NC(=O)Nc4ccc(C(=O)N5CCN(C)CC5)cc4)cc3)nc21
Activity [20]: Active
Activity [22]: Active
Activity [23]: Active
Activity [24]: Non-toxic
Activity [25]: Active
Activity [26]: Active
Activity [28]: inactive
Activity [29]: Active
Activity [30]: Active
Activity [31]: Active
Activity [32]: Active
Activity [33]: inactive
Activity [34]: Active
Activity [35]: Active

IC50 [1]: 285 nM
half-life ([8]; liver microsomes): 15 min
IC50 [4]: 2.55 nM
IC50 [5]: 199 nM
SMILES: CCn1nnc2c(N3CCOCC3)nc(-c3ccc(NC(=O)Nc4ccc(C(=O)OC)cc4)cc3)nc21
